SMILES strings stand for the structures.

One experiment deals with T1, human cathepsin K (Homo sapiens, UniProt P43235).
T1 construct: purchased Enzo Life Sciences, Lörrach, Germany
T1 sequence (P43235 115-329): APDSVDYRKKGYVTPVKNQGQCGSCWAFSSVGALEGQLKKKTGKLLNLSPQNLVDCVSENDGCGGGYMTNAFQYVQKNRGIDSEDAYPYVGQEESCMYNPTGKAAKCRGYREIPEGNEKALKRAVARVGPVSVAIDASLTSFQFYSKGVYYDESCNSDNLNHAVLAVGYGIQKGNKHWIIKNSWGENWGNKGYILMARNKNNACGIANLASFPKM
The experiment is described as follows: Cathepsin K inhibition assay (Cbz-Leu-Arg-AMC). It is filed as biochemical. As to conditions: 20 µM inhibitor, 60 min; read-out: Residual activity @ 20 µM (%) Cat K. The protocol: 1. Enzyme Inhibition Assays and Kinetic Data of Inhibition of Cathepsins B, L, K and S General. Human cathepsins were assayed either fluorimetrically or spectrophotometrically as noted below. The 10 mM inhibitor solutions were prepared in DMSO. The final concentration of DMSO in all assays was 2%. Non-linear regressions were conducted with GraFit 5. Residual cathepsin activity at an inhibitor concentration of 20 µM was determined from duplicate measurements based on the product formation after 60 min. Concentration dependent measurements were performed in duplicate measurements with five different inhibitor concentrations when the residual cathepsin activity in the presence of 20 µM inhibitor was below 70% (cathepsin B) or below 50% (cathepsins cathepsins L, K, and S). Progress curves were monitored for 60 min. First-order rate constants, kobs, were determined by non-linear regression following the equation [P] = vi × (1 – exp(-kobs × t))/kobs + d, where [P] is the product concentration, vi is the initial product formation rate, kobs is the observed first-order rate constant, and d is the offset. Mean values of kobs were plotted versus corresponding inhibitor concentrations [I], and second-order rate constants of inactivation, kinac/Ki, were obtained by linear regression. The equation kobs/[I] = (kinac/Ki)/(1 + [S]/Km) was used, where [S] is the substrate concentration and Km is the Michaelis-Menten constant. Standard errors (SE) refer to the linear regression. […] Cathepsin K inhibition assay.[1] Human recombinant cathepsin K (Enzo Life Sciences, Lörrach, Germany) was assayed fluorimetrically on a Monaco Safas spectrofluorometer flx or a Fluostar OPTIMA plate reader (BMG Labtech, Ortenberg, Germany). The wavelength for excitation was 360 nm and for emission 440 nm. The reactions were followed at 25 °C. A human cathepsin K stock solution of 23 µg/mL in 50 mM sodium acetate pH 5.5, 50 mM NaCl, 0.5 mM EDTA, 5 mM DTT was diluted 1:100 with assay buffer (100 mM sodium citrate pH 5.0, 100 mM NaCl, 1 mM EDTA, 0.01% CHAPS) containing 5 mM DTT and incubated for 30 min at 37 °C. A 10 mM stock solution of the 7-amino-4-methyl-coumarin (AMC)-based fluorogenic substrate Cbz-Leu-Arg-AMC was prepared in DMSO. The final concentration of the substrate was 40 μM (= 13.3 Km). When using the spectrofluorometer, into a cuvette containing 960 μL assay buffer, inhibitor solution and DMSO in a total volume of 16 μL, and 4 μL of the substrate solution were added and mixed. The reaction was initiated by adding 20 µL of the cathepsin K solution. When using the plate reader, into a well containing 192 µL assay buffer, inhibitor solution and DMSO in a total volume of 3.2 µL and 0.8 µL of the substrate solution were added and mixed. The reaction was initiated by adding 4 µL of the cathepsin K solution.
Cathepsin S inhibition assay.[2] […]
DTT, 0.5% Triton X-100 and 30% glycerol was diluted 1:100 with a 50 mM sodium phosphate buffer pH 6.5, 50 mM NaCl, 2 mM EDTA, 0.01% Triton X-100 and 5 mM DTT and incubated for 60 min at 37 °C. A 10 mM stock solution of the fluorogenic substrate Cbz-Phe-Arg-AMC was prepared in DMSO.
The assay was performed with a final substrate concentration of 40 µM (= 0.74 Km). When using the spectrofluorometer, into a cuvette containing 920 μL assay buffer, inhibitor solution and DMSO in a total volume of 16 μL, and 4 μL of the substrate solution were added and mixed. The reaction was initiated by adding 60 μL of the cathepsin S solution. When using the plate reader, into a well containing 188 µL assay buffer, inhibitor solution and DMSO in a total volume of 3.2 µL and 0.8 µL of the substrate solution were added and mixed. The reaction was initiated by adding […] of the cathepsin S solution.
Turning to `CC(C)CC(NC(=O)Oc1ccccc1)C(=O)NC(Cc1ccccc1)C(=O)O` (stereo not drawn) [Compound 1], the remaining activity at 20 µM amounted to 77%.
Same read-out and setting: the result for `CC(C)C[C@H](NC(=O)Oc1ccc(Cl)cc1)C(=O)N[C@@H](Cc1ccccc1)C(=O)OC(C)(C)C` [Compound 2] reads 93%; that for `COC(=O)C(Cc1ccccc1)NC(=O)C(CC(C)C)NC(=O)Oc1ccc(Cl)cc1` (stereo not drawn) [Compound 3], no less than 98%.
Still for that read-out and setting: the result for `CC(C)C[C@H](NC(=O)Oc1ccc(Cl)cc1)C(=O)N[C@@H](Cc1ccccc1)C(=O)O` [Compound 4] reads 92%; that for `CC(C)CC(CNC(=O)Oc1ccc(Cl)cc1)C(=O)N[C@H](Cc1ccccc1)C(=O)O` (stereo partly drawn) [Compound 5], 70%.
Still for that read-out and setting: the result for `O=C(NC(CC1CCCCC1)C(=O)NC(Cc1ccccc1)C(=O)O)Oc1ccc(Cl)cc1` (stereo not drawn) [Compound 7] reads 60%; that for `CC(C)C[C@H](NC(=O)Oc1ccc(Cl)cc1)C(=O)N1CCC[C@H]1C(=O)O` [Compound 8], 91%.
Take `CC(C)CC(CNC(=O)Oc1ccc(Cl)cc1)C(=O)N1CCC[C@@H]1C(=O)O` (stereo partly drawn) [Compound 9]: the remaining activity at 20 µM came out at 85%.
On the same count and under the same terms, the result for `CC(C)C[C@H](NC(=O)Oc1ccc(Cl)cc1)C(=O)N1CCCC[C@H]1C(=O)O` [Compound 10] reads 93%.
As to `CC(C)C[C@@H](C(=O)N1CCC[C@H]1C(=O)O)N(C)C(=O)Oc1ccc(Cl)cc1` [Compound 15], the remaining activity at 20 µM was found to be 91%.
With `CC(C)CC(OC(=O)Nc1ccc(Cl)cc1)C(=O)N1CCC[C@H]1C(=O)O` (stereo partly drawn) [Compound 17], the remaining activity at 20 µM was 95%.
On the same count and under the same terms, the result for `CC(C)C[C@H](NC(=O)Nc1ccc(Cl)cc1)C(=O)N[C@@H](Cc1ccccc1)C(=O)O` [Compound 18] reads 87%.
The same measure, in the same setting: under `CC(C)C[C@H](NC(=O)Nc1ccc(Cl)cc1)C(=O)N1CCC[C@H]1C(=O)O` [Compound 19] stands 92%.
As to `CC(C)C[C@H](NC(=O)Oc1ccc(Cl)c(NC(=O)Cc2ccccc2)c1)C(=O)N1CCC[C@H]1C(=O)O` [Compound 20], the remaining activity at 20 µM is 82%.
The same measure, in the same setting: the result for `CC(C)C[C@H](NC(=O)Oc1ccc(-c2ccccc2)c(NC(=O)Cc2ccccc2)c1)C(=O)N1CCC[C@H]1C(=O)O` [Compound 21] reads 73%; that for `CC(C)CC(NC(=O)Oc1ccc(Cl)c(NC(=O)C(c2ccccc2)c2ccccc2)c1)C(=O)N1CCCC1C(=O)O` (stereo not drawn) [Compound 22], 87%; that for `CC(C)C[C@H](NC(=O)Oc1cccc(Cl)c1)C(=O)N1CCC[C@H]1C(=O)O` [Compound 23], 87%.
The same measure, in the same setting: the result for `CC(C)C[C@H](NC(=O)Oc1ccc(NC(=O)Cc2ccccc2)c(Cl)c1)C(=O)N1CCC[C@H]1C(=O)O` [Compound 24] reads 95%; that for `CC(C)C[C@H](NC(=O)Oc1ccc(NC(=O)N(Cc2ccccc2)Cc2ccccc2)c(Br)c1)C(=O)N1CCC[C@H]1C(=O)O` [Compound 26], 83%; that for `CC(C)CC(NC(=O)Oc1ccc(NC(=O)C(c2ccccc2)c2ccccc2)c(Br)c1)C(=O)N1CCCC1C(=O)O` (stereo not drawn) [Compound 27], 90%.
Same read-out and setting: under `CC(C)CC(NC(=O)Oc1ccc(NC(=O)C(c2ccccc2)c2ccccc2)c(Cl)c1)C(=O)N1CCCC1C(=O)O` (stereo not drawn) [Compound 28] stands 83%.

The experiment is the same for the next values; noted with them: five inhibitor concentrations, 60 min progress curves.
Take `CC(C)CC(OC(=O)Nc1ccc(Cl)cc1)C(=O)N[C@@H](Cc1ccccc1)C(=O)O` (stereo partly drawn) [Compound 16]: the “kinac/Ki ± SE Cat K” value stood at 185 M⁻¹ s⁻¹.
`O=C(NC(CC1CCCCC1)C(=O)NC(Cc1ccccc1)C(=O)O)Oc1ccc(NC(=O)C(c2ccccc2)c2ccccc2)c(Cl)c1` (stereo not drawn) [Compound 30]: the “kinac/Ki ± SE Cat K” value stood at 3490 M⁻¹ s⁻¹.
Still for that read-out and setting: under `O=C(NC(CC1CCCCC1)C(=O)NC(Cc1ccccc1)C(=O)O)Oc1ccc(NC(=O)C(Cc2ccccc2)Cc2ccccc2)c(Cl)c1` (stereo not drawn) [Compound 31] stands 23.1 M⁻¹ s⁻¹.

Staying with this experiment, now noted: inhibitor not soluble at 20 µM; calculated for 20 µM from IC50 at two lower concentrations; read-out: Residual activity @ 20 µM (%) Cat K, approximated [e].
Regarding `CC(C)CC(NC(=O)Oc1ccc(NC(=O)c2ccc(-c3ccccc3)cc2)c(Cl)c1)C(=O)N1CCCC1C(=O)O` (stereo not drawn) [Compound 25], the remaining activity at 20 µM was 76%.
As for `CC(C)CC(NC(=O)Oc1ccc(NC(=O)C(c2ccccc2)c2ccccc2)c(Cl)c1)C(=O)NC(Cc1ccccc1)C(=O)O` (stereo not drawn) [Compound 29], the remaining activity at 20 µM is 8%.

For the next experiment, the target named is T2, human cathepsin B (Homo sapiens, UniProt P07858).
T2 construct: purchased Calbiochem, Darmstadt, Germany
The experiment is described as follows: Cathepsin B reactivation experiment. The experiment is classed as biochemical. As to conditions: 30 min incubation with 0.5 µM, spin-filter removal of inhibitor, 200 min. As for the experimental part:
Figure S2. Reactivation experiment of human cathepsin B after incubation with the carbamate inhibitors 7 and 31. Cathepsin B (38 µg/mL) was incubated under assay conditions for 30 min with • DMSO, • 5 µM of compound 7, or • 0.5 µM of compound 31. After removal of assay buffer, DMSO and excessive inhibitor by spin-filter centrifugation, product formation was followed in the presence of Cbz-Arg-Arg-pNA as substrate for 200 min. A negative control (•) containing only substrate and no enzyme was used to measure spontaneous decay of the substrate.
(also on this page, place not known: time (min) 0 60 120 180 absorption 0 0.2 0.4 0.6)
(1 picture or pasted object on this page, not shown here)
On to `O=C(NC(CC1CCCCC1)C(=O)NC(Cc1ccccc1)C(=O)O)Oc1ccc(NC(=O)C(Cc2ccccc2)Cc2ccccc2)c(Cl)c1` (stereo not drawn) [Compound 31], for which the “reversibility of cathepsin B inhibition” value is listed as “irreversible”.

(Values after PMC12304826, “Redirecting the Peptide Cleavage Causes Protease Inactivation” (Angewandte Chemie (International Ed. in English), 2025).)
